Assay results taken from ChEMBL document CHEMBL2434905, “2-Amino-6-chloro-3,4-dihydroquinazoline: A novel 5-HT3 receptor antagonist with antidepressant character” (Bioorg Med Chem Lett, 2013).
Calls of active or inactive are those of the source. No cut-off for these calls is given here.

Test system: Mus musculus
Test: Antidepressant activity in ICR mouse assessed as immobility time at 20 mg/kg, ip by tail suspension test
Assay type: functional, organism-based
Set-up: dose 20 mg/kg

CNCCCN1c2ccccc2CCc2ccccc21
Activity: Active
